# Test results taken from patent US4575560A, “Insecticidal diaminoguanidine hydrazone compounds” (American Cyanamid Company, priority 1985, dated 1986).
# Counter-ions that a name gives are not always drawn. Like-named read-outs stand apart in the source and are kept apart here.
# Assays:
# [1] = system: Tobacco Budworm 3rd Instar; test: Tobacco budworm secondary test, third-instar larvae on treated cotton cotyledons; assay type: in vivo, Heliothis virescens (Fabricus)
# Southern Armyworm = test: Southern armyworm test, third-instar larvae on treated Sieva lima bean leaves; assay type: in vivo, Spodoptera eridania (Cramer)
# Description: Test formulations and procedures used for evaluation are as follows:
# A. 100 mg of the test material is weighed, placed in a funnel over a 113 g narrow-mouth bottle, rinsed into the bottle with a 35 mL scoop of acetone, followed by a 35 mL scoop of water and another 35 mL scoop of acetone to yield 1000 ppm in 65% acetone. If the material is not soluble, it is broken up with a glass rod and used as a suspension.
# B. This stock solution ("A") is used to make 300 ppm solutions or suspensions by pipetting 30 mL of "A" into a bottle containing 70 mL of 50% acetone to yield 300 ppm. Further dilutions in 50% acetone are made as required.
# C. Tests requiring 10 ppm acetone solutions: 1 mL of "A" is pipetted into 99 mL of acetone to yield 10 ppm. Additional dilutions are made using 50% acetone as required.
# Southern Armyworm--Spodoptera eridania (Cramer)
# A Sieva lima bean plant with just the primary leaves expanded to 1.91 cm is dipped for three seconds with agitation in the "A" solution of 1000 ppm and set in the hood to dry. Following this, one leaf is placed in a 9 cm petri dish which has a moist filter paper in the bottom and 10 third-instar armyworm larvae about 1 cm long. This dish is covered and held at 80° F., and 50% r.h. After two days, mortality counts and estimates of the amount of feeding are made. Compounds showing partial kill and/or inhibition of feeding are held for an extra day for further observations.
# All compounds showing activity as defined above are retested, using the second leaf on the bean plant, after an interval of seven days from original treatment, as an assay of residual activity.
Compound,Mortality Rating Tobacco Budworm 3rd Instar ([1]; 100 ppm),reduced feeding (R) Tobacco Budworm 3rd Instar ([1]; 100 ppm),Mortality Rating Tobacco Budworm 3rd Instar ([1]; 1000 ppm),reduced feeding (R) Tobacco Budworm 3rd Instar ([1]; 1000 ppm),"Mortality Rating Southern Armyworm (Southern Armyworm; 10 ppm, third-instar larvae)","Mortality Rating Southern Armyworm (Southern Armyworm; 100 ppm, third-instar larvae)","Mortality Rating Southern Armyworm (Southern Armyworm; 1000 ppm, third-instar larvae)",Mortality Rating Tobacco Budworm 3rd Instar ([1]; 10 ppm),reduced feeding (R) Tobacco Budworm 3rd Instar ([1]; 10 ppm),reduced feeding (R) Southern Armyworm (Southern Armyworm; 100 ppm),reduced feeding (R) Southern Armyworm (Southern Armyworm; 1000 ppm),LC50 (Southern Armyworm; Spodoptera eridania; read-out: LC50 Southern Armyworm) [µg/mL],"LC50 (Southern Armyworm; Spodoptera eridania, read-out: LC50 Southern Armyworm) [µg/mL]"
N=C(NN=Cc1ccc(OC(F)(F)F)cc1)N(N=Cc1ccc(OC(F)(F)F)cc1)C(=O)OCC(Cl)(Cl)Cl [CF3 O / CF3 O / Cl3 CCH2],1 (11-25%),R,0 (No effect),R,9 (100%),9 (100%),9 (100%),,,,,,
N=C(NN=Cc1ccc(OC(F)(F)F)cc1)N(N=Cc1ccc(OC(F)(F)F)cc1)C(=O)OCCCl [CF3 O / CF3 O / ClCH2 CH2],0 (No effect),R,8 (86-99%),R,5 (56-65%),9 (100%),9 (100%),0 (No effect),R,,,,
CCC(C)OC(=O)N(N=Cc1ccc(OC(F)(F)F)cc1)C(=N)NN=Cc1ccc(OC(F)(F)F)cc1 (centres unmarked) [CF3 O / CF3 O / drawing 55],0 (No effect),R,8 (86-99%),,0 (No effect),9 (100%),9 (100%),,,,,,
CCC(C)OC(=O)N(N=Cc1ccc(Cl)cc1)C(=N)NN=Cc1ccc(Cl)cc1 (centres unmarked) [Cl / Cl / drawing 56],0 (No effect),,0 (No effect),R,,0 (No effect),9 (100%),,,,,,
N=C(NN=Cc1ccc(Cl)cc1)NN=Cc1ccc(OC(F)(F)C(F)F)cc1 [Cl / HCF2 CF2 O / B],0 (No effect),,0 (No effect),R,0 (No effect),9 (100%),9 (100%),,,,,,
N=C(NN=Cc1ccc(Cl)cc1)NN=Cc1ccc(Cl)cc1 [Cl / HCl],,,0 (No effect),,0 (No effect),0 (No effect),,,,R,R,,
N=C(NN=Cc1ccc(Cl)cc1)NN=Cc1ccc(Cl)cc1 [Cl / HNO3],,,0 (No effect),,,0 (No effect),9 (100%),,,,,,
CN(C)C(=O)N(N=Cc1ccc(F)cc1)C(=N)NN=Cc1ccc(F)cc1 [F / F / CH3 / CH3],,,0 (No effect),,,0 (No effect),8 (86-99%),,,,,,
CC(C)OC(=O)N(N=Cc1ccc(OC(F)(F)C(Cl)Cl)cc1)C(=N)NN=Cc1ccc(OC(F)(F)C(Cl)Cl)cc1 [HCCL2 CF2 O / HCCl2 CF2 O / -i-C3 H7],0 (No effect),R,0 (No effect),R,,0 (No effect),7 (76-85%),,,,,,
N=C(NN=Cc1ccc(OC(F)(F)C(Cl)Cl)cc1)NN=Cc1ccc(OC(F)(F)C(Cl)Cl)cc1 [HCCL2 CF2 O / S],0 (No effect),R,5 (56-65%),,7 (76-85%),9 (100%),9 (100%),,,,,,
N=C(NN=Cc1ccc(OC(F)(F)C(Cl)Cl)cc1)NN=Cc1ccc(OC(F)(F)C(Cl)Cl)cc1 [HCCl2 CF2 O / B],,,4 (46-55%),R,0 (No effect),0 (No effect),9 (100%),,,,,,
N=C(NN=Cc1ccc(OC(F)(F)C(F)F)cc1)N(N=Cc1ccc(OC(F)(F)C(F)F)cc1)C(=O)N1CCCC1 [HCF2 CF2 O / HCF2 CF2 O / (CH2)4],0 (No effect),,3 (36-45%),,,9 (100%),9 (100%),,,,,,
CC(C)OC(=O)N(N=Cc1ccc(OC(F)(F)C(F)F)cc1)C(=N)NN=Cc1ccc(OC(F)(F)C(F)F)cc1 [HCF2 CF2 O / HCF2 CF2 O / -i-C3 H7],0 (No effect),,5 (56-65%),,0 (No effect),9 (100%),9 (100%),,,,,,
CCN(CC)C(=O)N(N=Cc1ccc(OC(F)(F)C(F)F)cc1)C(=N)NN=Cc1ccc(OC(F)(F)C(F)F)cc1 [HCF2 CF2 O / HCF2 CF2 O / C2 H5 / C2 H5],0 (No effect),,5 (56-65%),,1 (11-25%),9 (100%),9 (100%),0 (No effect),,,,,
CCNC(=O)N(N=Cc1ccc(OC(F)(F)C(F)F)cc1)C(=N)NN=Cc1ccc(OC(F)(F)C(F)F)cc1 [HCF2 CF2 O / HCF2 CF2 O / C2 H5 / H],,,4 (46-55%),,0 (No effect),9 (100%),9 (100%),,,,,34,
CNC(=O)N(N=Cc1ccc(OC(F)(F)C(F)F)cc1)C(=N)NN=Cc1ccc(OC(F)(F)C(F)F)cc1 [HCF2 CF2 O / HCF2 CF2 O / CH3 / H],,,4 (46-55%),,0 (No effect),9 (100%),9 (100%),,,,,,
N=C(NN=Cc1ccc(OC(F)(F)C(F)F)cc1)N(N=Cc1ccc(OC(F)(F)C(F)F)cc1)C(=O)NCCCl [HCF2 CF2 O / HCF2 CF2 O / ClCH2 CH2 / H],0 (No effect),,6 (66-75%),,0 (No effect),8 (86-99%),9 (100%),0 (No effect),,,,,21
N=C(NN=Cc1ccc(SC(F)(F)C(F)F)cc1)NN=Cc1ccc(SC(F)(F)C(F)F)cc1 [HCF2 CF2 S / B],,,0 (No effect),R,,9 (100%),9 (100%),,,,,,
CC(C)OC(=O)N(N=Cc1ccc(SC(F)(F)C(F)F)cc1)C(=N)NN=Cc1ccc(SC(F)(F)C(F)F)cc1 [HCF2 CF2 S / HCF2 CF2 S / -i-C3 H7],0 (No effect),,5 (56-65%),R,,9 (100%),9 (100%),,,,,,
CN(C)C(=O)N(N=Cc1ccc(SC(F)(F)C(F)F)cc1)C(=N)NN=Cc1ccc(SC(F)(F)C(F)F)cc1 [HCF2 CF2 S / HCF2 CF2 S / CH3 / CH3],6 (66-75%),,6 (66-75%),,3 (36-45%),9 (100%),9 (100%),0 (No effect),,,,,
CCOC(=O)N(N=Cc1ccc(OC(F)F)cc1)C(=N)NN=Cc1ccc(OC(F)F)cc1 [HCF2 O / HCF2 O / C2 H5],,,2 (26-35%),,0 (No effect),9 (100%),9 (100%),,,,,,
N=C(NN=Cc1ccc(SC(F)F)cc1)NN=Cc1ccc(SC(F)F)cc1 [HCF2 S / B],0 (No effect),R,0 (No effect),R,,9 (100%),8 (86-99%),0 (No effect),,,,,
CCCOC(=O)N(N=Cc1ccc(SC(F)F)cc1)C(=N)NN=Cc1ccc(OC(F)F)cc1 [HCF2 S / HCF2 O / -n-C3 H7],,,0 (No effect),,,0 (No effect),9 (100%),,,,,,
CN(C)C(=O)N(N=Cc1ccc(SC(F)F)cc1)C(=N)NN=Cc1ccc(SC(F)F)cc1 [HCF2 S / HCF2 S / CH3 / CH3],,,0 (No effect),,0 (No effect),9 (100%),9 (100%),,,,,,
